Laboratory results as given in patent US20020137929A1, “1 - (3-heterocyclylphenyl) isothiourea, -isourea, -guanidine and -amidine herbicidal agents” (Intellectual Property Department, BASF Aktiengesellschaft, priority 1998, published 2002).

Columns and labels:
ABUTH (Velvetleaf) = experiment: Postemergence herbicidal evaluation; format: in vivo, Abutilon theophrasti; settings: postemergence
How it was run: (§1)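 Rate range approx. 0.0156–0.500 kg/ha. Foliar application at 40 psi to ~2-week seedlings; surfactant 0.5% TWEEN 20 in 50/50 acetone/water. Evaluation 4–5 wk post-treatment by 0–9 visual injury score, means of replicate tests.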

[1] = tested on: IPOHE (Morningglory, Ivyleaf); experiment: Postemergence herbicidal evaluation; format: in vivo, Ipomoea hederacea; settings: postemergence
How it was run: as §1

[2] = tested on: TRZAWR (Wheat, Winter, cv Riband); experiment: Postemergence herbicidal evaluation; format: in vivo, Triticum aestivum; settings: postemergence
How it was run: as §1

[3] = tested on: CHEAL (Lambsquarters, Common); experiment: Preemergence herbicidal evaluation; format: in vivo, Chenopodium album; settings: preemergence, rated 4-5 weeks after treatment, 0-9 scale
How it was run: (§2)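 Preemergence soil application of compound, sprayed in aqueous acetone at rates equivalent to about 0.0156 to 0.500 kg per hectare onto freshly sown cups. Plant response was judged by eye on a 0-9 scale four to five weeks later.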

[4] = tested on: IPOHE (Morningglory, Ivyleaf); experiment: Preemergence herbicidal evaluation; format: in vivo, Ipomoea hederacea; settings: preemergence, rated 4-5 weeks after treatment, 0-9 scale
How it was run: as §2

ECHCG (Barnyardgrass) = experiment: Preemergence herbicidal evaluation; format: in vivo, Echinochloa crus-galli; settings: preemergence, rated 4-5 weeks after treatment, 0-9 scale
How it was run: as §2

SETVI (Foxtail, Green) = experiment: Preemergence herbicidal evaluation; format: in vivo, Setaria viridis; settings: preemergence, rated 4-5 weeks after treatment, 0-9 scale
How it was run: as §2

ORYSAT (Rice, Tebonnet) = experiment: Preemergence herbicidal evaluation; format: in vivo, Oryza sativa, (L.) Tebonnet; settings: preemergence, rated 4-5 weeks after treatment, 0-9 scale
How it was run: as §2

[5] = tested on: TRZAWR (Wheat, Winter, cv Riband); experiment: Preemergence herbicidal evaluation; format: in vivo, Triticum aestivum; settings: preemergence, rated 4-5 weeks after treatment, 0-9 scale
How it was run: as §2

[6] = tested on: ECHORC (Watergrass (Calif.)); experiment: Preemergence weed control under flooded paddy conditions; format: in vivo, Echinochloa oryzoides; settings: rated 3-4 weeks after treatment
How it was run: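 Seeds or propagules sown in top 0.5 cm of silt loam soil, flooded 1.5 to 3 cm above surface throughout. Compound in 50/50 v/v aqueous/acetone pipetted into flood water at about 0.0313 to 0.500 kg/ha. Visual 0-9 rating versus control after three to four weeks in greenhouse.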

MOOVA (Monochoria) = experiment: as above; format: in vivo, Monochoria vaginalis; settings: rated 3-4 weeks after treatment
How it was run: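 Greenhouse paddy assay. Acetone/water (50/50 v/v) solutions dosed into flood water, equivalent to about 0.0313 to 0.500 kg/ha active ingredient, over seeds planted 0.5 cm deep in silt loam. Score: 0-9 visual, based on stand, vigor, malformation, size and chlorosis, 3 to 4 weeks after treatment.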

[7] = tested on: ECHORC (Watergrass (Calif.)); experiment: Postemergence weed control under flooded paddy conditions; format: in vivo, Echinochloa oryzoides; settings: postemergence weeds, rated 3 to 4 weeks after treatment
How it was run: (§3)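 With weeds 3 to 5 cm tall and rice at the 1.5 to 2.5 leaf stage, containers were flooded and water held 1.5 to 3 cm above soil. Compounds in 50/50 v/v aqueous/acetone went into the flood water at about 0.0313 to 0.500 kg/ha a.i. Effects were visually rated 0–9 against controls after three to four weeks in the greenhouse.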

CYPIR (Rice Flatsedge) = experiment: as above; format: in vivo, Cyperus iria; settings: postemergence weeds, rated 3 to 4 weeks after treatment
How it was run: as §3

C=CCN1C(=O)C(CC(=O)NS(C)(=O)=O)SC1=Nc1cc(-n2c(=O)cc(C(F)(F)F)n(C)c2=O)c(F)cc1Cl (centres unmarked) [Compound 96, 3-Allyl-2-{{2-chloro-5-[3,6-dihydro-3-methyl-2,6-dioxo-4-(trifluoromethyl)-1(2H)-pryimidinyl]-4-fluorophenyl}imino}-N-(methylsulfonyl)-4-oxo-5-thiazolidineacetamide]
ABUTH herbicidal rating (ABUTH (Velvetleaf); rate 0.0156 kg/ha): 1.0 | ABUTH herbicidal rating (ABUTH (Velvetleaf); rate 0.0313 kg/ha): 7.0 | ABUTH herbicidal rating (ABUTH (Velvetleaf); rate 0.0625 kg/ha): 9.0 | ABUTH herbicidal rating (ABUTH (Velvetleaf); rate 0.1250 kg/ha): 9.0 | IPOHE herbicidal rating ([1]; rate 0.0156 kg/ha): 6.0 | IPOHE herbicidal rating ([1]; rate 0.0313 kg/ha): 9.0 | IPOHE herbicidal rating ([1]; rate 0.0625 kg/ha): 9.0 | IPOHE herbicidal rating ([1]; rate 0.1250 kg/ha): 9.0 | TRZAWR herbicidal rating ([2]; rate 0.0156 kg/ha): 2.0 | TRZAWR herbicidal rating ([2]; rate 0.0313 kg/ha): 2.5 | TRZAWR herbicidal rating ([2]; rate 0.0625 kg/ha): 2.5 | TRZAWR herbicidal rating ([2]; rate 0.1250 kg/ha): 3.0 | CHEAL rating ([3]; 0.0313 kg/ha): 2.0 | CHEAL rating ([3]; 0.0625 kg/ha): 2.0 | CHEAL rating ([3]; 0.1250 kg/ha): 3.0 | CHEAL rating ([3]; 0.2500 kg/ha): 9.0 | CHEAL rating ([3]; 0.5000 kg/ha): 9.0 | IPOHE rating ([4]; 0.0313 kg/ha): 0.0 | IPOHE rating ([4]; 0.0625 kg/ha): 0.0 | IPOHE rating ([4]; 0.1250 kg/ha): 1.0 | IPOHE rating ([4]; 0.2500 kg/ha): 9.0 | IPOHE rating ([4]; 0.5000 kg/ha): 9.0 | ECHCG rating (ECHCG (Barnyardgrass); 0.0313 kg/ha): 0.0 | ECHCG rating (ECHCG (Barnyardgrass); 0.0625 kg/ha): 0.0 | ECHCG rating (ECHCG (Barnyardgrass); 0.1250 kg/ha): 0.0 | ECHCG rating (ECHCG (Barnyardgrass); 0.2500 kg/ha): 1.0 | ECHCG rating (ECHCG (Barnyardgrass); 0.5000 kg/ha): 1.0 | SETVI rating (SETVI (Foxtail, Green); 0.0313 kg/ha): 1.0 | SETVI rating (SETVI (Foxtail, Green); 0.0625 kg/ha): 1.0 | SETVI rating (SETVI (Foxtail, Green); 0.1250 kg/ha): 0.0 | SETVI rating (SETVI (Foxtail, Green); 0.2500 kg/ha): 1.0 | SETVI rating (SETVI (Foxtail, Green); 0.5000 kg/ha): 4.0 | ORYSAT rating (ORYSAT (Rice, Tebonnet); 0.0313 kg/ha): 0.0 | ORYSAT rating (ORYSAT (Rice, Tebonnet); 0.0625 kg/ha): 0.0 | ORYSAT rating (ORYSAT (Rice, Tebonnet); 0.1250 kg/ha): 0.0 | ORYSAT rating (ORYSAT (Rice, Tebonnet); 0.2500 kg/ha): 1.0 | ORYSAT rating (ORYSAT (Rice, Tebonnet); 0.5000 kg/ha): 2.0 | TRZAWR rating ([5]; 0.0313 kg/ha): 0.0 | TRZAWR rating ([5]; 0.0625 kg/ha): 0.0 | TRZAWR rating ([5]; 0.1250 kg/ha): 0.0 | TRZAWR rating ([5]; 0.2500 kg/ha): 1.0 | TRZAWR rating ([5]; 0.5000 kg/ha): 1.0 | ECHORC herbicidal effect rating ([6]; 0.0313 kg/ha): 0.0 | ECHORC herbicidal effect rating ([6]; 0.0625 kg/ha): 0.0 | ECHORC herbicidal effect rating ([6]; 0.1250 kg/ha): 0.0 | ECHORC herbicidal effect rating ([6]; 0.2500 kg/ha): 3.0 | MOOVA herbicidal effect rating (MOOVA (Monochoria); 0.0313 kg/ha): 2.0 | MOOVA herbicidal effect rating (MOOVA (Monochoria); 0.0625 kg/ha): 2.0 | MOOVA herbicidal effect rating (MOOVA (Monochoria); 0.1250 kg/ha): 3.0 | MOOVA herbicidal effect rating (MOOVA (Monochoria); 0.2500 kg/ha): 3.0 | Herbicidal rating ECHORC ([7]; Rate 0.0313 kg/ha): 0.0 | Herbicidal rating ECHORC ([7]; Rate 0.0625 kg/ha): 0.0 | Herbicidal rating ECHORC ([7]; Rate 0.1250 kg/ha): 0.0 | Herbicidal rating ECHORC ([7]; Rate 0.2500 kg/ha): 3.0 | Herbicidal rating CYPIR (CYPIR (Rice Flatsedge); Rate 0.0313 kg/ha): 0.0 | Herbicidal rating CYPIR (CYPIR (Rice Flatsedge); Rate 0.0625 kg/ha): 5.0 | Herbicidal rating CYPIR (CYPIR (Rice Flatsedge); Rate 0.1250 kg/ha): 6.0 | Herbicidal rating CYPIR (CYPIR (Rice Flatsedge); Rate 0.2500 kg/ha): 6.0

CCOC(=O)CN1C(=O)C(CC(=O)NO)S/C1=N/c1cc(-n2c(=O)cc(C(F)(F)F)n(C)c2=O)c(F)cc1Cl (centres unmarked) [Compound 98, Ethyl 2-{{2-chloro-5-[3,6-dihydro-3-methyl-2,6-dioxo-4-(trifluoromethyl)-1(2H)-pyrimidinyl]-4-fluorophenyl}imino}-5-[(hydroxycarbamoyl)methyl]-4-oxo-3-thiazolidineacetate]
ABUTH herbicidal rating (ABUTH (Velvetleaf); rate 0.0156 kg/ha): 2.0 | ABUTH herbicidal rating (ABUTH (Velvetleaf); rate 0.0313 kg/ha): 7.0 | ABUTH herbicidal rating (ABUTH (Velvetleaf); rate 0.0625 kg/ha): 9.0 | ABUTH herbicidal rating (ABUTH (Velvetleaf); rate 0.1250 kg/ha): 9.0 | IPOHE herbicidal rating ([1]; rate 0.0156 kg/ha): 3.0 | IPOHE herbicidal rating ([1]; rate 0.0313 kg/ha): 3.0 | IPOHE herbicidal rating ([1]; rate 0.0625 kg/ha): 9.0 | IPOHE herbicidal rating ([1]; rate 0.1250 kg/ha): 9.0 | TRZAWR herbicidal rating ([2]; rate 0.0156 kg/ha): 2.5 | TRZAWR herbicidal rating ([2]; rate 0.0313 kg/ha): 2.5 | TRZAWR herbicidal rating ([2]; rate 0.0625 kg/ha): 3.0 | TRZAWR herbicidal rating ([2]; rate 0.1250 kg/ha): 3.0 | CHEAL rating ([3]; 0.0156 kg/ha): 0.0 | CHEAL rating ([3]; 0.0313 kg/ha): 2.0 | CHEAL rating ([3]; 0.0625 kg/ha): 5.0 | CHEAL rating ([3]; 0.1250 kg/ha): 7.0 | CHEAL rating ([3]; 0.2500 kg/ha): 9.0 | CHEAL rating ([3]; 0.5000 kg/ha): 9.0 | IPOHE rating ([4]; 0.0156 kg/ha): 0.0 | IPOHE rating ([4]; 0.0313 kg/ha): 0.0 | IPOHE rating ([4]; 0.0625 kg/ha): 1.0 | IPOHE rating ([4]; 0.1250 kg/ha): 3.0 | IPOHE rating ([4]; 0.2500 kg/ha): 4.0 | IPOHE rating ([4]; 0.5000 kg/ha): 9.0 | ECHCG rating (ECHCG (Barnyardgrass); 0.0156 kg/ha): 0.0 | ECHCG rating (ECHCG (Barnyardgrass); 0.0313 kg/ha): 0.0 | ECHCG rating (ECHCG (Barnyardgrass); 0.0625 kg/ha): 0.0 | ECHCG rating (ECHCG (Barnyardgrass); 0.1250 kg/ha): 1.0 | ECHCG rating (ECHCG (Barnyardgrass); 0.2500 kg/ha): 1.0 | ECHCG rating (ECHCG (Barnyardgrass); 0.5000 kg/ha): 2.0 | SETVI rating (SETVI (Foxtail, Green); 0.0156 kg/ha): 0.0 | SETVI rating (SETVI (Foxtail, Green); 0.0313 kg/ha): 1.0 | SETVI rating (SETVI (Foxtail, Green); 0.0625 kg/ha): 0.0 | SETVI rating (SETVI (Foxtail, Green); 0.1250 kg/ha): 4.0 | SETVI rating (SETVI (Foxtail, Green); 0.2500 kg/ha): 3.0 | SETVI rating (SETVI (Foxtail, Green); 0.5000 kg/ha): 7.0 | ORYSAT rating (ORYSAT (Rice, Tebonnet); 0.0156 kg/ha): 0.0 | ORYSAT rating (ORYSAT (Rice, Tebonnet); 0.0313 kg/ha): 0.0 | ORYSAT rating (ORYSAT (Rice, Tebonnet); 0.0625 kg/ha): 0.0 | ORYSAT rating (ORYSAT (Rice, Tebonnet); 0.1250 kg/ha): 0.0 | ORYSAT rating (ORYSAT (Rice, Tebonnet); 0.2500 kg/ha): 1.0 | ORYSAT rating (ORYSAT (Rice, Tebonnet); 0.5000 kg/ha): 4.0 | TRZAWR rating ([5]; 0.0156 kg/ha): 0.0 | TRZAWR rating ([5]; 0.0313 kg/ha): 0.0 | TRZAWR rating ([5]; 0.0625 kg/ha): 0.0 | TRZAWR rating ([5]; 0.1250 kg/ha): 0.0 | TRZAWR rating ([5]; 0.2500 kg/ha): 1.0 | TRZAWR rating ([5]; 0.5000 kg/ha): 3.0 | ECHORC herbicidal effect rating ([6]; 0.0313 kg/ha): 0.0 | ECHORC herbicidal effect rating ([6]; 0.0625 kg/ha): 0.0 | ECHORC herbicidal effect rating ([6]; 0.1250 kg/ha): 1.0 | ECHORC herbicidal effect rating ([6]; 0.2500 kg/ha): 3.0 | MOOVA herbicidal effect rating (MOOVA (Monochoria); 0.0313 kg/ha): 9.0 | MOOVA herbicidal effect rating (MOOVA (Monochoria); 0.0625 kg/ha): 9.0 | MOOVA herbicidal effect rating (MOOVA (Monochoria); 0.1250 kg/ha): 9.0 | MOOVA herbicidal effect rating (MOOVA (Monochoria); 0.2500 kg/ha): 9.0 | Herbicidal rating ECHORC ([7]; Rate 0.0313 kg/ha): 0.0 | Herbicidal rating ECHORC ([7]; Rate 0.0625 kg/ha): 0.0 | Herbicidal rating ECHORC ([7]; Rate 0.1250 kg/ha): 1.0 | Herbicidal rating ECHORC ([7]; Rate 0.2500 kg/ha): 3.0 | Herbicidal rating CYPIR (CYPIR (Rice Flatsedge); Rate 0.0313 kg/ha): 9.0 | Herbicidal rating CYPIR (CYPIR (Rice Flatsedge); Rate 0.0625 kg/ha): 9.0 | Herbicidal rating CYPIR (CYPIR (Rice Flatsedge); Rate 0.1250 kg/ha): 9.0 | Herbicidal rating CYPIR (CYPIR (Rice Flatsedge); Rate 0.2500 kg/ha): 9.0
